The text below walks through data of patent US20240228572A1 (i2o Therapeutics, Inc., priority 2020, published 2024).

Molecules are shown by their SMILES. pEC50: −log10 of the molar value. *1 amine or outer side, *2 acyl side, *3 side chain or, on linkers, in order; H or OH if unused. Where a SMILES comes first, the peptide text is derived from it. Side-chain parts run from the residue outwards. [ ]: non-standard residue; d: D form. The star is where a group is joined. C20 diacid = O=C(O)CCCCCCCCCCCCCCCCCCC(=O)*; γGlu = O=C(O)[C@H](CCC(=O)[*:2])N[*:1]; AEEA = NCCOCCOCC(=O)O; Aib = CC(C)(N)C(=O)O

The experiment concerns the target T1, human GLP-1 receptor (GLP-1R) (Homo sapiens, UniProt P43220).
T1 construct: expressed in transfected cells
Nature of the experiment: cAMP accumulation assay, CHO-K1 cells stably expressing human GLP-1R. It is filed as cell-based. Conditions: cAMP accumulation, mean pEC50, Table 10. The method, then:
In the presence of the non-specific cAMP/cGMP phosphodiesterase inhibitor, 3-isobutyl-1-methylxanthine (IBMX), accumulating cAMP can be measured in vitro using common detection methods. Thus, it is possible to estimate an in vitro potency (pEC50) for peptides activating each of these receptors using fit dose-response curves for cAMP accumulation.
CHO-K1 cells stably expressing human GLP-1R (Genebank accession #NM_002062) were grown in 90% F12-K media supplemented with 10% FBS and 250 μg/ml G418.
On day 1, CHO-K1 cells were plated at 1.5 million cells per T75 flask in 90% F12-K media supplemented with 10% FBS. On day 3 cells were transfected with 40 mcg of each expression plasmid using Lipofectamine 2000 transfection reagent. On day 5, cells were dispensed at 1000 cells per well in white 384-well OptiPlates in 5 mcL of assay buffer consisting of 1×HBSS, 5 mM HEPES, 0.5 mM IBMX, and 0.1% casein.
Peptides were serially diluted 4-fold in assay buffer to final concentrations ranging from 1×10^−9 M to 9.5×10^−16 M. Two assay controls consisting of 50 mcM forskolin (cAMP system maximum) or assay buffer only (cAMP system minimum) were also prepared. Five microliters of each peptide-concentration, or assay control, was added to triplicate wells and incubated for thirty minutes at room temperature. During this incubation step a 4× europium labelled cAMP tracer solution and a 4× Ulight®-anti-cAMP solution (consisting of an anti-cAMP monoclonal antibody labelled with Ulight™ dye) was prepared according to the manufacturer's protocol (PerkinElmer LANCE Ultra cAMP kit). Following this incubation, 5 mcL europium labelled cAMP and 5 mcL Ulight anti-cAMP antibody was added to each well. The plate was covered to prevent evaporation and incubated for 60 minutes at room temperature in the dark. Plates were read on an Envision fluorescent plate reader (PerkinElmer).
Test values were first normalized to the system maximum and system minimum averaged values in Excel using the formula: (test value−system min average)/(system max average -system min average)*100. Normalized test values represent a baseline corrected percentage of the system maximum cAMP response induced by forskolin. Data from up to 3 replicate tests were analyzed for each peptide. Potency values were estimated using GraphPad Prism software (v7.04) by fitting data to a 4-parameter logistic curve model: Y=Bottom+(Top−Bottom)/(1+10^((LogEC50−X))). The Hill slope was constrained to 1.0. EC50 values were converted to pEC50 values using the formula: pEC50=−Log (EC50).

T1 sequence (P43220 24-463): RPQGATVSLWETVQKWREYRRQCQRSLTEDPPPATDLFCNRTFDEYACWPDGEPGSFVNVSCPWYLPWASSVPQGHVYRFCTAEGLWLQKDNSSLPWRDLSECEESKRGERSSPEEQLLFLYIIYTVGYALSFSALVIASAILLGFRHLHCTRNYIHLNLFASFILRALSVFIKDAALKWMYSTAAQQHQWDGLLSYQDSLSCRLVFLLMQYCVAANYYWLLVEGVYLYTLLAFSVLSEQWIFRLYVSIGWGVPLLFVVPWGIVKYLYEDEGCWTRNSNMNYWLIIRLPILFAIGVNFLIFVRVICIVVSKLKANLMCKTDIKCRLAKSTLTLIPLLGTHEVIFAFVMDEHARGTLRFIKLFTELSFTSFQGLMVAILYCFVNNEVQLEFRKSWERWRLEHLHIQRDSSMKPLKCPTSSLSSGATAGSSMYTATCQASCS

In turn, `CC(C)C[C@H](NC(=O)[C@H](Cc1ccc(O)cc1)NC(=O)[C@H](CCCCN)NC(=O)[C@H](CO)NC(=O)[C@H](Cc1ccc(O)cc1)NC(=O)[C@H](CC(=O)O)NC(=O)[C@H](CO)NC(=O)[C@@H](NC(=O)[C@H](Cc1ccccc1)NC(=O)[C@@H](NC(=O)CNC(=O)[C@H](Cc1c[nH]cn1)NC(=O)[C@H](CO)NC(=O)[C@@H](N)Cc1ccc(O)cc1)[C@@H](C)O)[C@@H](C)O)C(=O)N[C@@H](CC(=O)O)C(=O)N[C@@H](CCCCNC(=O)CC[C@H](NC(=O)CC[C@H](NC(=O)COCCOCCNC(=O)CCCCCCCCCCCCCCCCCCC(=O)O)C(=O)O)C(=O)O)C(=O)N[C@@H](CCCCN)C(=O)N[C@@H](Cc1ccc(O)cc1)C(=O)N[C@@H](C)C(=O)N[C@@H](CCC(N)=O)C(=O)N[C@@H](CCC(=O)O)C(=O)N[C@@H](Cc1ccccc1)C(=O)N[C@H](C(=O)NC(C)(C)C(=O)N[C@@H](Cc1c[nH]c2ccccc12)C(=O)N[C@@H](CC(C)C)C(=O)N[C@@H](CCC(=O)O)C(=O)N[C@@H](CCC(=O)O)C(=O)N[C@@H](CCC(=O)O)C(=O)N1CCC[C@H]1C(=O)N[C@@H](CO)C(=O)N[C@@H](CO)C(=O)NCC(=O)N[C@@H](C)C(=O)N1CCC[C@H]1C(=O)N1CCC[C@H]1C(=O)N1CCC[C@H]1C(=O)N[C@@H](CO)C(=O)O)C(C)C` [Compound A15] (H-YSHGTFTSDYSKYLDK([γGlu-γGlu-AEEA-C20 diacid])KYAQEFV[Aib]WLEEEPSSGAPPPS-OH) gave a pEC50 of less than 9.00.
In the case of `CC(C)C[C@H](NC(=O)[C@H](Cc1ccc(O)cc1)NC(=O)[C@H](CCCCN)NC(=O)[C@H](CO)NC(=O)[C@H](Cc1ccc(O)cc1)NC(=O)[C@H](CC(=O)O)NC(=O)[C@H](CO)NC(=O)[C@@H](NC(=O)[C@H](Cc1ccccc1)NC(=O)[C@@H](NC(=O)CNC(=O)[C@H](Cc1c[nH]cn1)NC(=O)[C@H](CO)NC(=O)[C@@H](N)Cc1ccc(O)cc1)[C@@H](C)O)[C@@H](C)O)C(=O)N[C@@H](CC(=O)O)C(=O)N[C@@H](CCCCNC(=O)CC[C@H](NC(=O)CC[C@H](NC(=O)COCCOCCNC(=O)CCCCCCCCCCCCCCCCCCC(=O)O)C(=O)O)C(=O)O)C(=O)N[C@@H](CCCCN)C(=O)N[C@@H](Cc1ccc(O)cc1)C(=O)N[C@@H](C)C(=O)N[C@@H](CCC(N)=O)C(=O)N[C@@H](CCC(=O)O)C(=O)N[C@@H](Cc1ccccc1)C(=O)N[C@H](C(=O)NC(C)(C)C(=O)N[C@@H](Cc1c[nH]c2ccccc12)C(=O)N[C@@H](CC(C)C)C(=O)N[C@@H](CCC(=O)O)C(=O)N[C@@H](CC(N)=O)C(=O)N[C@@H](CCC(=O)O)C(=O)N1CCC[C@H]1C(=O)N[C@@H](CO)C(=O)N[C@@H](CO)C(=O)NCC(=O)N[C@@H](C)C(=O)N1CCC[C@H]1C(=O)N1CCC[C@H]1C(=O)N1CCC[C@H]1C(=O)N[C@@H](CO)C(=O)O)C(C)C` [Compound A16] (H-YSHGTFTSDYSKYLDK([γGlu-γGlu-AEEA-C20 diacid])KYAQEFV[Aib]WLENEPSSGAPPPS-OH), the pEC50 is less than 9.00.
